Assay results taken from PubChem BioAssay (NCI).
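1) Cells in 96-well plates. 2) Compound, 48 h, 5 concentrations. 3) Linear interpolation between surrounding doses. 4) Unreached endpoint = highest concentration. Abbreviation: GI50, concentration required for 50% inhibition of growth. Definition used: TGI = concentration required for complete inhibition of growth.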

Legend:
Experiment in all cases: growth of human tumour cells (NCI), 48 h
786-0 renal = tested on: 786-0 renal
OVCAR-3 ovarian = tested on: OVCAR-3 ovarian
RPMI-8226 leukemia = tested on: RPMI-8226 leukemia
TK-10 renal = tested on: TK-10 renal
OVCAR-5 ovarian = tested on: OVCAR-5 ovarian
OVCAR-8 ovarian = tested on: OVCAR-8 ovarian
NCI-H460 lung = tested on: NCI-H460 lung
SN12C renal = tested on: SN12C renal
SF-268 CNS = tested on: SF-268 CNS
A498 renal = tested on: A498 renal
NCI-H226 lung = tested on: NCI-H226 lung
UACC-257 melanoma = tested on: UACC-257 melanoma
HL-60(TB) leukemia = tested on: HL-60(TB) leukemia
OVCAR-4 ovarian = tested on: OVCAR-4 ovarian
SK-MEL-28 melanoma = tested on: SK-MEL-28 melanoma

SMILES | TGI (786-0 renal) [µM] | TGI (OVCAR-3 ovarian) [µM] | TGI (RPMI-8226 leukemia) [µM] | GI50 (TK-10 renal) [µM] | TGI (TK-10 renal) [µM] | TGI (OVCAR-5 ovarian) [µM] | TGI (OVCAR-8 ovarian) [µM] | TGI (NCI-H460 lung) [µM] | TGI (SN12C renal) [µM] | TGI (SF-268 CNS) [µM] | GI50 (A498 renal) [µM] | TGI (A498 renal) [µM] | TGI (NCI-H226 lung) [µM] | TGI (UACC-257 melanoma) [µM] | TGI (HL-60(TB) leukemia) [µM] | TGI (OVCAR-4 ovarian) [µM] | TGI (SK-MEL-28 melanoma) [µM]
COc1ccc(/C=C2/C(=O)N(/C=C3\C(=O)Oc4ccccc4C3=O)C(=NC(C)=O)N2C)cc1OC | > 100 | > 41.7 | > 100 | > 100 | > 100 | > 100 | > 100 | > 100 | > 100 | > 100 | > 100 | > 100 | > 100 | > 100 | > 100 | > 100 | > 100
COc1cc([N+](=O)[O-])cc2c1NC(=O)C2(C)SC (stereo not drawn) | > 100 | > 100 | > 100 | – | > 100 | > 100 | > 100 | > 100 | > 100 | > 100 | – | > 100 | > 100 | > 100 | 47.2 | > 100 | > 100
Clc1ccc(C2=Cc3nc2c(-c2ccccc2)c2ccc([nH]2)c(-c2ccccc2)c2nc(c(-c4ccccc4)c4ccc([nH]4)c3-c3ccccc3)C=C2)cc1 | > 62.5 | > 62.5 | > 62.5 | – | > 62.5 | > 62.5 | > 62.5 | > 62.5 | > 62.5 | > 62.5 | – | > 62.5 | > 62.5 | > 62.5 | > 62.5 | > 62.5 | > 62.5
O=S(=O)(N1CCCCN(S(=O)(=O)C(F)(F)F)CCCN(S(=O)(=O)C(F)(F)F)CCCCN(S(=O)(=O)C(F)(F)F)CCCN(S(=O)(=O)C(F)(F)F)CCCCN(S(=O)(=O)C(F)(F)F)CCCN(S(=O)(=O)C(F)(F)F)CCCCN(S(=O)(=O)C(F)(F)F)CCC1)C(F)(F)F | > 100 | > 31.6 | > 100 | – | > 31.6 | > 100 | > 31.6 | > 31.6 | > 31.6 | > 31.6 | – | > 31.6 | > 31.6 | > 31.6 | > 31.6 | > 100 | > 31.6
CNC(=O)OCC1=C(COC(=O)NC)CN(c2ccc(OC)cc2)C1 | > 100 | > 100 | > 100 | – | > 100 | > 100 | > 100 | > 100 | > 100 | > 100 | – | 3.9 | 41.1 | > 100 | > 100 | > 100 | > 100
CCCCCCCCCc1cc(=O)c2c(O)cc(O)cc2o1 | 42.8 | 30.4 | 22.3 | – | 34.5 | 32 | 40.2 | 50.6 | 38.9 | 14.5 | – | 35.2 | 36 | 35.5 | 32.3 | 40.9 | 52.2
COc1ccc([C@H]2[C@@H]3CCc4ccccc4C3=NN2C(N)=S)cc1OC | > 100 | > 100 | > 100 | – | > 100 | > 100 | > 100 | > 100 | > 100 | > 100 | – | > 100 | > 100 | > 100 | 54.8 | > 100 | > 100
c1cc2nnc1SCCSCCCSCCS2 | > 100 | > 100 | > 100 | – | > 100 | > 100 | > 100 | > 100 | > 100 | > 100 | – | > 100 | > 100 | > 100 | > 100 | > 100 | > 100
CC(=O)Nc1ccc(S(=O)(=O)N/N=C(\C)CN2C(=O)c3ccccc3C2=O)cc1 | > 100 | > 100 | > 100 | – | > 100 | > 100 | > 100 | > 100 | > 100 | – | – | > 100 | > 100 | > 100 | > 100 | > 100 | –
COC(=O)C(Cc1ccccc1)NP(=O)(O)OCC1OC(n2ccc(N)nc2=O)C(O)C1O (stereo not drawn) | > 100 | > 100 | > 100 | – | > 100 | > 100 | > 100 | > 100 | > 100 | > 100 | – | > 100 | > 100 | > 100 | > 100 | > 100 | > 100
CCCCCCCCCCCCCCCCCCOC(COP(=O)(O)OCC1OC(n2cc(F)c(=O)[nH]c2=O)CC1O)COP(=O)(O)OCC1OC(n2ccc(N)nc2=O)C(O)C1O (stereo not drawn) | 28.1 | > 100 | > 100 | – | > 100 | > 100 | > 100 | > 65.3 | > 100 | > 75 | – | > 100 | > 100 | > 100 | > 100 | > 100 | > 100
O=C1/C(=C\c2cccc(Oc3ccccc3)c2)SC(c2ccccc2)N1Cc1ccccc1 (stereo not drawn) | > 100 | 70 | 57.4 | – | 99.5 | > 100 | 68.9 | > 100 | > 100 | > 100 | – | > 100 | 90.9 | 87.9 | 78.3 | > 100 | > 100
CCOC(=O)n1ccc2c(C(=O)OC)c(C(=O)OC)cc(/C(=C/C(=O)OC)C(=O)OC)c21 | > 100 | > 100 | > 100 | – | > 100 | > 100 | > 100 | > 100 | > 100 | > 100 | – | > 100 | > 100 | > 100 | > 100 | > 100 | > 100
O=c1[nH]nc(Cc2ccc(Cl)cc2)n1CCO | > 100 | > 100 | > 100 | – | > 100 | > 100 | > 100 | > 100 | > 100 | > 100 | – | > 100 | > 100 | > 100 | > 100 | > 100 | > 100
COc1ccc(C2S/C(=C\c3ccc([N+](=O)[O-])cc3)C(=O)N2NC(=O)Cc2ccccc2)cc1 (stereo not drawn) | > 100 | – | > 100 | – | > 100 | > 100 | > 100 | > 100 | > 100 | > 100 | – | > 100 | > 100 | > 100 | > 100 | > 100 | > 100
CCC1=NC(N/N=C/c2ccco2)=N/C1=C\c1ccco1 | > 100 | – | > 100 | – | > 100 | > 100 | > 100 | > 100 | > 100 | > 100 | – | > 100 | > 100 | > 100 | > 100 | > 100 | > 100
COc1ccc(/C=N/NC(=O)CSc2nc(-c3ccccc3)c(-c3ccccc3)[nH]2)cc1OC | 81 | 39.7 | 51.8 | – | > 100 | 64 | 36.3 | 91.6 | 94.4 | > 100 | – | 70 | 80.4 | 57.3 | 42.3 | 87.4 | 89.8
CC1(C)OC2C(O1)[C@H]1OC(C(Cl)(Cl)Cl)=N[C@H]1C(I)[C@H]2N1C(=O)c2ccccc2C1=O (stereo partly drawn) | > 100 | – | > 100 | – | – | > 100 | > 100 | > 100 | > 100 | > 100 | – | > 100 | > 100 | > 100 | 44.4 | 55.5 | > 100
COc1ccccc1CC1(O)OC(=O)c2ccccc21 (stereo not drawn) | > 100 | > 100 | > 100 | – | > 100 | > 100 | > 100 | > 100 | > 100 | > 100 | – | > 100 | > 100 | > 100 | > 100 | > 100 | > 100
CCCCCCCCCCCCCC/C(C(=O)O)=C(\C)C(=O)O | > 100 | > 100 | > 100 | – | > 100 | > 100 | > 100 | > 100 | > 100 | > 100 | – | > 100 | > 100 | > 100 | > 100 | > 100 | > 100
C/C(=N\NC(N)=S)C(CN1CCCCC1)C(C1=C(O)c2ccccc2OC1)c1ccccc1 (stereo not drawn) | > 100 | > 100 | 73.6 | – | > 100 | > 100 | > 100 | > 100 | > 100 | > 100 | – | > 100 | > 100 | > 100 | 88.4 | > 100 | > 100
CCC12CN(C(=O)OC)C3C(Br)C1CCC(=O)C32 (stereo not drawn) | > 100 | > 100 | > 100 | – | > 100 | > 100 | > 100 | > 100 | – | > 100 | – | > 100 | > 100 | > 100 | > 100 | > 100 | > 100
COc1ccc(OC)c2c1ccc1c(C)c3ccccc3c(C)c12 | > 100 | > 100 | > 100 | – | > 100 | > 100 | > 100 | > 100 | > 100 | > 100 | – | > 100 | > 100 | > 100 | > 100 | > 100 | > 100
CN1CCN(c2ccc3nc(-c4ccc5nc(CCCc6ccc(N(CCCl)CCCl)cc6)[nH]c5c4)[nH]c3c2)CC1 | > 100 | – | > 100 | – | > 100 | > 100 | > 100 | > 100 | > 100 | > 100 | – | > 100 | > 100 | > 100 | > 100 | > 100 | > 100
CC(C)C(=O)/C=C/c1ccc(Cl)cc1Cl | 27.2 | 16.1 | > 100 | – | 27.2 | 30.7 | 22.8 | 23.4 | 23 | 22.5 | – | 31.8 | 41 | 26 | > 100 | 20.9 | 30.6
O=C1NC(=O)C23C(=O)NC(=O)C12C1C=CC3CC1 (stereo not drawn) | > 10 | > 10 | > 10 | – | > 10 | – | > 10 | > 10 | > 10 | > 10 | – | > 10 | > 10 | > 10 | > 10 | > 10 | > 10
O=C(Cc1ccccc1)N/N=C(/c1nc2ccc([N+](=O)[O-])cc2[nH]c1=O)C(O)c1ccco1 (stereo not drawn) | > 100 | – | > 100 | – | > 100 | > 100 | > 100 | > 100 | > 100 | > 100 | – | > 100 | > 100 | > 100 | > 100 | > 100 | > 100
COC(=O)[C@H]1C2CC[C@@H]3C45C[C@@H](c6ccoc6)O[C@@H]4O[C@@H](O2)C31CCC5C (stereo partly drawn) | > 100 | > 100 | > 100 | – | > 100 | > 100 | > 100 | > 100 | > 100 | > 100 | – | > 100 | > 100 | > 100 | > 100 | > 100 | –
Oc1cc(F)cc2cccnc12 | > 100 | – | 1.17 | – | > 100 | > 100 | > 100 | 29.3 | > 94.3 | – | – | > 68.1 | > 100 | 4.29 | 0.454 | > 100 | > 100
CCOC1Oc2ccccc2-c2nc(N)ncc21 (stereo not drawn) | > 100 | > 100 | > 100 | – | > 100 | > 100 | > 100 | > 100 | > 100 | > 100 | – | 81.3 | > 100 | > 100 | 62.3 | > 100 | –
